US9725416B2, “Ethynyl derivatives” (Hoffmann-La Roche Inc., priority 2014, dated 2017)

Target: T1, human mGlu4 receptor (Homo sapiens, UniProt Q14833)
T1 construct: expressed in transfected cells; host or cells: HEK-293 (monoclonal, stably transfected)
Assay: Ca2+ mobilization in vitro assay on recombinant human mGlu4 expressed in HEK293 cells (mGlu4 PAM)
Assay type: cell-based
Settings: for Emax: HEK293, maximal response in % of the maximal stimulatory effect obtained with saturating concentrations of L-AP4, read-out: Eff. (%); for EC50: HEK-293 cells, Ca2+ mobilization, L-AP4 added at EC20
Method: Determination of EC50 Values Using a Ca2+ mobilization in vitro Assay on Recombinant Human mGlu4 Expressed in HEK293 cells:
A monoclonal HEK-293 cell line stably transfected with a cDNA encoding for the human mGlu4 receptor was generated; for the work with mGlu4 Positive Allosteric Modulators (PAMs), a cell line with low receptor expression levels and low constitutive receptor activity was selected to allow the differentiation of agonistic versus PAM activity. Cells were cultured according to standard protocols (Freshney, 2000) in Dulbecco's Modified Eagle Medium with high glucose supplemented with 1 mM glutamine, 10% (vol/vol) heat-inactivated bovine calf serum, Penicillin/Streptomycin, 50 μg/ml hygromycin and 15 μg/ml blasticidin (all cell culture reagents and antibiotics from Invitrogen, Basel, Switzerland).
About 24 hrs before an experiment, 5×10^4 cells/well were seeded in poly-D-lysine coated, black/clear-bottomed 96-well plates. The cells were loaded with 2.5 μM Fluo-4AM in loading buffer (1×HBSS, 20 mM HEPES) for 1 hr at 37° C. and washed five times with loading buffer. The cells were transferred into a Functional Drug Screening System 7000 (Hamamatsu, Paris, France), and 11 half logarithmic serial dilutions of test compound at 37° C. were added and the cells were incubated for 10-30 min. with on-line recording of fluorescence. Following this pre-incubation step, the agonist (2S)-2-amino-4-phosphonobutanoic acid (L-AP4) was added to the cells at a concentration corresponding to EC20 with on-line recording of fluorescence; in order to account for day-to-day variations in the responsiveness of cells, the EC20 of L-AP4 was determined immediately ahead of each experiment by recording of a full dose-response curve of L-AP4.
Responses were measured as peak increase in fluorescence minus basal (i.e. fluorescence without addition of L-AP4), normalized to the maximal stimulatory effect obtained with saturating concentrations of L-AP4. Graphs were plotted with the % maximal stimulatory using XLfit, a curve fitting program that iteratively plots the data using Levenburg Marquardt algorithm. The single site competition analysis equation used was y=A+((B−A)/(1+((x/C)D))), where y is the % maximal stimulatory effect, A is the minimum y, B is the maximum y, C is the EC50, x is the log 10 of the concentration of the competing compound and D is the slope of the curve (the Hill Coefficient). From these curves the EC50 (drug concentration at which 50% of the maximal receptor activation was achieved), the Hill coefficient as well as the maximal response in % of the maximal stimulatory effect obtained with saturating concentrations of L-AP4 were calculated (see FIG. 1).
A depression of the signal observed after addition of the EC20 concentration of L-AP4was indicative of an inhibitory activity of the test compound.

T1 sequence (Q14833 33-912): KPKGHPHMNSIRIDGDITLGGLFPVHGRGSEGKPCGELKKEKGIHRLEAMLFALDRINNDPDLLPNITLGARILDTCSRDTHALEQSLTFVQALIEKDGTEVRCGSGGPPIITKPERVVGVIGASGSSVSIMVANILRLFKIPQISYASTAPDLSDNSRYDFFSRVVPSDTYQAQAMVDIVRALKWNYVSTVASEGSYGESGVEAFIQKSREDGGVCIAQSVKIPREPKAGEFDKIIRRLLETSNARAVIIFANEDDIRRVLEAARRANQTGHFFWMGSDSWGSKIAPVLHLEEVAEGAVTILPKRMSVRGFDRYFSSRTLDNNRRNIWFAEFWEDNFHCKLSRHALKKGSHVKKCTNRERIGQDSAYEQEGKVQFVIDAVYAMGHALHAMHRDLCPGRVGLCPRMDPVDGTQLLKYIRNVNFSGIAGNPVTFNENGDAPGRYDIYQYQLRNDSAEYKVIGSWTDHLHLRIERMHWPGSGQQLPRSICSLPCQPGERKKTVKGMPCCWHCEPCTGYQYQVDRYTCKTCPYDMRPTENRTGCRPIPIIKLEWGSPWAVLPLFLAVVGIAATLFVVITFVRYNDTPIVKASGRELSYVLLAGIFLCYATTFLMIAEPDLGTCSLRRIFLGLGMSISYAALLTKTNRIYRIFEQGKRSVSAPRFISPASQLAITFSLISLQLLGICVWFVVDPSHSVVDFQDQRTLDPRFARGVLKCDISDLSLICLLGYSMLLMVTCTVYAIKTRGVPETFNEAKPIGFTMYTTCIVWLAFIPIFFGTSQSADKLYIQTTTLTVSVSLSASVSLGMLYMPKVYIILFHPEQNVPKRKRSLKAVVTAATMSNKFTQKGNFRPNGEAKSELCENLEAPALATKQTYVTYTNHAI

| SMILES | Emax | EC50 |
| --- | --- | --- |
| CC(C)C1(C)CC(=O)N(c2c(F)cc(C#Cc3ccccc3)cc2F)C(=O)N1C (racemic) [Example 26, (6RS)-3-[2,6-Difluoro-4-(2-phenylethynyl)phenyl]-6-isopropyl-1,6-dimethyl-hexahydropyrimidine-2,4-dione] | 107% | 64 nM |
| CN1C(=O)N(c2c(F)cc(C#Cc3ccccc3)cc2F)C(=O)CC1(C)c1ccccn1 (racemic) [Example 27, (6RS)-3-[2,6-Difluoro-4-(2-phenylethynyl)phenyl]-1,6-dimethyl-6-(2-pyridyl)hexahydropyrimidine-2,4-dione] | 99% | 72 nM |
| CN1C(=O)N(c2c(F)cc(C#Cc3ccccc3)cc2F)C(=O)CC1(C)c1ccncc1 (racemic) [Example 28, (6RS)-3-[2,6-Difluoro-4-(2-phenylethynyl)phenyl]-1,6-dimethyl-6-(4-pyridyl)hexahydropyrimidine-2,4-dione] | 105% | 112 nM |
| CN1C(=O)N(c2c(F)cc(C#Cc3ccccc3)cc2F)C(=O)CC1(C)c1cccnc1 (racemic) [Example 29, (6RS)-3-[2,6-Difluoro-4-(2-phenylethynyl)phenyl]-1,6-dimethyl-6-(3-pyridyl)hexahydropyrimidine-2,4-dione] | 144% | 109 nM |
| COCC1(C)CC(=O)N(c2c(F)cc(C#Cc3ccccc3)cc2F)C(=O)N1C (racemic) [Example 30, (6RS)-3-[2,6-Difluoro-4-(2-phenylethynyl)phenyl]-6-(methoxymethyl)-1,6-dimethyl-hexahydropyrimidine-2,4-dione] | 103% | 123 nM |
| CN1C(=O)N(c2c(F)cc(C#Cc3cccnc3)cc2F)C(=O)CC1(C)C1CCCCC1 (racemic) [Example 31, (6RS)-6-Cyclohexyl-3-[2,6-difluoro-4-[2-(3-pyridyl)ethynyl]phenyl]-1,6-dimethyl-hexahydropyrimidine-2,4-dione] | 117% | 245 nM |
| CN1C(=O)N(c2ncc(C#Cc3ccccc3)cc2Cl)C(=O)CC1(C)c1ccccc1 (racemic) [Example 32, (6RS)-3-[3-Chloro-5-(2-phenylethynyl)-2-pyridyl]-1,6-dimethyl-6-phenyl-hexahydropyrimidine-2,4-dione] | 103% | 155 nM |
| CN1C(=O)N(c2c(F)cc(C#Cc3cccnc3)cc2Cl)C(=O)CC1(C)c1cccnc1 (racemic) [Example 33, (6RS)-3-[2-Chloro-6-fluoro-4-[2-(3-pyridyl)ethynyl]phenyl]-1,6-dimethyl-6-(3-pyridyl)hexahydropyrimidine-2,4-dione] | 142% | 171 nM |
| CN1C(=O)N(c2c(F)cc(C#Cc3cccnc3)cc2Cl)C(=O)CC1(C)c1ccccc1 (racemic) [Example 34, (6RS)-3-[2-Chloro-6-fluoro-4-[2-(3-pyridyl)ethynyl]phenyl]-1,6-dimethyl-6-phenyl-hexahydropyrimidine-2,4-dione] | 150% | 135 nM |
| CN1CCN2C(=O)N(c3c(F)cc(C#Cc4ccccc4)cc3F)C(=O)CC2(C)C1=O (racemic) [Example 35, (9aRS)-7-[2,6-Difluoro-4-(2-phenylethynyl)phenyl]-2,9a-dimethyl-4,9-dihydro-3H-pyrazino[1,2-c]pyrimidine-1,6,8-trione] | 131% | 158 nM |
| CC(C)N1CCN2C(=O)N(c3c(F)cc(C#Cc4ccccc4)cc3F)C(=O)CC2(C)C1=O (racemic) [Example 36, (9aRS)-7-[2,6-Difluoro-4-(2-phenylethynyl)phenyl]-2-isopropyl-9a-methyl-4,9-dihydro-3H-pyrazino[1,2-c]pyrimidine-1,6,8-trione] | 128% | 169 nM |
| CC12CC(=O)N(c3c(F)cc(C#Cc4ccccc4)cc3F)C(=O)N1CCN(Cc1ccccc1)C2=O (racemic) [Example 37, (9aRS)-2-Benzyl-7-[2,6-difluoro-4-(2-phenylethynyl)phenyl]-9a-methyl-4,9-dihydro-3H-pyrazino[1,2-c]pyrimidine-1,6,8-trione] | 97% | 131 nM |
| CC12CC(=O)N(c3c(F)cc(C#Cc4ccccc4)cc3F)C(=O)N1CCN(c1ccccc1)C2=O (racemic) [Example 38, (9aRS)-7-[2,6-Difluoro-4-(2-phenylethynyl)phenyl]-9a-methyl-2-phenyl-4,9-dihydro-3H-pyrazino[1,2-c]pyrimidine-1,6,8-trione] | 105% | 31 nM |
| CN1C(=O)N(c2c(F)cc(C#Cc3cccnc3)cc2F)C(=O)CC1(C)c1cccc(Cl)c1 (racemic) [Example 39, (6RS)-6-(3-Chlorophenyl)-3-[2,6-difluoro-4-[2-(3-pyridyl)ethynyl]phenyl]-1,6-dimethyl-hexahydropyrimidine-2,4-dione] | 112% | 224 nM |
| CN1C(=O)N(c2c(F)cc(C#Cc3cccnc3)cc2F)C(=O)CC1(C)c1ccccc1Cl (racemic) [Example 40, (6RS)-6-(2-Chlorophenyl)-3-[2,6-difluoro-4-[2-(3-pyridyl)ethynyl]phenyl]-1,6-dimethyl-hexahydropyrimidine-2,4-dione] | 109% | 394 nM |
| CN1C(=O)N(c2c(F)cc(C#Cc3cccnc3)cc2F)C(=O)CC1(C)c1ccc(Cl)cc1 (racemic) [Example 41, (6RS)-6-(4-Chlorophenyl)-3-[2,6-difluoro-4-[2-(3-pyridyl)ethynyl]phenyl]-1,6-dimethyl-hexahydropyrimidine-2,4-dione] | 115% | 229 nM |
| COc1cccc(C2(C)CC(=O)N(c3c(F)cc(C#Cc4cccnc4)cc3F)C(=O)N2C)c1 (racemic) [Example 42, (6RS)-3-[2,6-Difluoro-4-[2-(3-pyridyl)ethynyl]phenyl]-6-(3-methoxyphenyl)-1,6-dimethyl-hexahydropyrimidine-2,4-dione] | 116% | 165 nM |
| CC(C)(C)C1(C)CC(=O)N(c2c(F)cc(C#Cc3ccccc3)cc2F)C(=O)N1 (racemic) [Example 43, (6RS)-6-tert-Butyl-3-[2,6-difluoro-4-(2-phenylethynyl)phenyl]-6-methyl-hexahydropyrimidine-2,4-dione] | 92% | 75 nM |
| CN1C(=O)N(c2c(F)cc(C#Cc3ccccc3)cc2F)C(=O)CC1(C)C(C)(C)C (racemic) [Example 44, (6RS)-6-tert-Butyl-3-[2,6-difluoro-4-(2-phenylethynyl)phenyl]-1,6-dimethyl-hexahydropyrimidine-2,4-dione] | 109% | 66 nM |
| CN1C(=O)N(c2ncc(C#Cc3ccccc3)cc2F)C(=O)CC1(C)c1ccccc1 (racemic) [Example 45, (6RS)-3-[3-Fluoro-5-(2-phenylethynyl)-2-pyridyl]-1,6-dimethyl-6-phenyl-hexahydropyrimidine-2,4-dione] | 107% | 72 nM |
| CN1C(=O)N(c2ncc(C#Cc3ccccc3)cc2C(F)(F)F)C(=O)CC1(C)c1ccccc1 (racemic) [Example 46, (6RS)-1,6-Dimethyl-6-phenyl-3-[5-(2-phenylethynyl)-3-(trifluoromethyl)-2-pyridyl]hexahydropyrimidine-2,4-dione] | 105% | 116 nM |
| CN1C(=O)N(c2ccc(C#Cc3ccccc3)cc2Cl)C(=O)CC1(C)c1cccnc1 (racemic) [Example 47, (6RS)-3-[2-Chloro-4-(2-phenylethynyl)phenyl]-1,6-dimethyl-6-(3-pyridyl)hexahydropyrimidine-2,4-dione] | 121% | 132 nM |
| CCC1(c2ccccc2)CC(=O)N(c2c(F)cc(C#Cc3cccnc3)cc2F)C(=O)N1C (racemic) [Example 48, (6RS)-3-[2,6-Difluoro-4-[2-(3-pyridyl)ethynyl]phenyl]-6-ethyl-1-methyl-6-phenyl-hexahydropyrimidine-2,4-dione] | 108% | 88 nM |
| CN1C(=O)N(c2c(F)cc(C#Cc3ccccc3)cc2F)C(=O)CC1(C)c1ccc(Cl)nc1 (racemic) [Example 51, (6RS)-6-(6-Chloro-3-pyridyl)-3-[2,6-difluoro-4-(2-phenylethynyl)phenyl]-1,6-dimethyl-hexahydropyrimidine-2,4-dione] | 108% | 88 nM |
